Test system: odorant receptor of the modified cells
Test: Gas stimulation of modified cells expressing different odorant receptors in a 96 well microplate, fluorescence recorded by camera
Type: cell-based
Conditions: sample as gas in the gas channel of 96 well microplate 80; for fluorescent response of the responding wells: different ORs in different wells, responding wells (81A: one well; 81C: four wells; 81E: two wells); for fluorescent response of all of the other wells: remaining dark wells (81B: 95 wells; 81D: 92 wells; 81F: 94 wells)
Source text: In a representative example of operation, an empty microplate is placed in the hatch 120 by a technician or automatically using a microplate loader/unloader. The microplate is moved to the disk support, with the wells aligned with the pipettes. The pipetting head holding the pipettes is lowered to position the tips of the pipettes in or near the wells. The pipettes deposit liquid containing cells into the wells. Inlet and outlet gas nozzles or fittings engage the gas channel inlet and outlet in the microplate. In some embodiments, there are more than one inlets and outlets that correspond to the number of channels and number of samples injected. Gas containing a VOC or other candidate molecule or compound sample is injected through the gas channel of the microplate. This may be done manually or via automation.
If the VOC or other candidate molecule or compound in the sample binds and activates the odorant receptor expressed by the cells, a signal is emitted (e.g., emission of fluorescent or luminescent light). The signal is detected by the camera 128 via the optical unit 126. The computer 138 analyzes and records the location (i.e., the well number or position), the intensity, time duration, color, and/or other parameters of the fluorescent light, along with data on the VOC or other candidate molecule or compound momentarily passing through the microplate. The computer 138 may calculate the mean of the pixels for each well in each of the images.
FIG. 14 is an image as recorded by the camera 128 with a sample of benzaldehyde provided into the gas channel of a 96 well microplate 80.
The microplate 80 shown in FIGS. 14-16 has different cells in different wells. As shown, the odorant receptors of different cells bind to different compounds. In each well of the 96 well microplate 80, the cells expressed the same OR. Different ORs were provided into different wells. […] This allows determination of which ORs may best detect menthol. It may also allow for genetically fine tuning the receptors.

Compound	fluorescent response of the responding wells	fluorescent response of all of the other wells
O=Cc1ccccc1 [benzaldehyde]	strongly fluorescing	not at all
CC1CCC(C(C)C)C(O)C1 (stereo not drawn) [menthol]	strong fluorescent responses	no fluorescent response
CCCCCc1ccco1 [2-pentylfuran]	strong fluorescent responses	no fluorescent response
